Reference: patent publication US20240066086A1, “Topical Hyperpigmentation Compositions and Method of Use” (Allergan Sales, LLC, priority 2022, published 2024)

Tests used:
Assay type in all cases: cell-based
primary human melanocyes = assay: in vitro melanogenesis in primary melanocytes
[1] = tested on: human melanoma cell line MNT-1 cells; assay: in vitro melanogenesis / melanin production in MNT-1 cells
Procedure: In the MNT-1 cell in vitro tests, neferine and liensinine reduced melanin production after seven days by at least 50%, 60%, 70%, 80% or greater at concentrations ranging from 0.1 μM to 5 μM.

[2] = tested on: 3-D dark pigmented epidermis model Melanoderm™ MEL0300B tissue; assay: in vitro melanogenesis in 3-D pigmented epidermis model

Measured: inhibition of melanogenesis

COc1ccc(C[C@@H]2c3cc(Oc4cc(C[C@@H]5c6cc(OC)c(OC)cc6CCN5C)ccc4O)c(OC)cc3CCN2C)cc1 [Neferine, neferine]
significantly inhibit melanogenesis: all assays above

COc1cc2c(cc1OC)[C@@H](Cc1ccc(O)c(Oc3cc4c(cc3OC)CCN(C)[C@@H]4Cc3ccc(O)cc3)c1)N(C)CC2 [liensinine]
significantly inhibit melanogenesis: all assays above
